Laboratory results from patent publication US6713261B1, “Method for assessing genotoxicity of a compound” (Institut National de la Sante et de la Recherche Medicale, priority 1999, dated 2004).
Read-outs that look alike come from different tables or passages of the source. Starred links: 1 amine or outer side, 2 acyl side, 3 side chain; linkers in the order of their positions; H or OH if unused. Positions of bridges follow the written chain, without caps; N, C: chain ends. Non-standard residues stand in square brackets, D forms with d. Residues, ends and D or L forms follow the SMILES beside them. Chains are numbered I, II in the order given. Actinocin(9to1) = Cc1c2oc3c(C)ccc(C(=O)[*:1])c3nc-2c(C(=O)[*:2])c(N)c1=O; NMeV = CN[C@H](C(=O)O)C(C)C; Sar = CNCC(=O)O

Key:
[1] = test system: CTLL-2 cells; format: cell-based, mouse; conditions: after metabolic activation
[2] = test system: CTLL-2-bcl2 cells; format: cell-based, mouse; conditions: after metabolic activation
[3] = test system: CTLL-2 cells; conditions: after metabolic activation
[4] = test system: CTLL-2-bcl2 cells; conditions: after metabolic activation
[5] = test system: CTLL-2 cells; experiment: Measurement of apoptosis (Annexin V-FITC, YOPRO-1) in CTLL-2 cells; format: cell-based, mouse
[6] = test system: CTLL-2-bcl2 cells; experiment: Measurement of apoptosis (Annexin V-FITC, YOPRO-1) in CTLL-2-bcl2 cells; format: cell-based, mouse; conditions: for induction of apoptosis (result in words): in parallel to micronucleus test
[7] = test system: CTLL-2 cells; experiment: Micronucleus test without metabolic activation in CTLL-2 cells; conditions: for formation of micronuclei / micronucleated cell frequency (result in words): harvested at 15th hour, without metabolic activation
[8] = test system: CTLL-2-bcl2 cells; experiment: Micronucleus test without metabolic activation in CTLL-2-bcl2 cells; conditions: harvested at 15th hour
[9] = test system: CTLL-2 cells; experiment: Metaphase analysis test in CTLL-2 cells; format: cell-based, mouse; conditions: for aberrant cells: CTLL-2
[10] = test system: CTLL-2 cells; conditions: mouse, 15 h
[11] = test system: human lymphocytes; conditions: human lymphocytes treated 44 hours; from 250 μM of dexamethasone; control 2%
[12] = test system: human lymphocytes; conditions: 44 hours
[13] = test system: CTLL-2-bcl2 cells; conditions: mouse, 15 h
[14] = CTLL-2 cells, in parallel to micronucleus test

Cc1c2ccccc2c(C)c2c1ccc1ccccc12 [7,12-dimethylbenz[a]anthracene]
apoptosis (result in words) [1]: apoptosis only on the CTLL-2 cells
apoptosis (result in words) [2]: apoptosis only on the CTLL-2 cells
formation of micronuclei (result in words) [3]: induce the formation of micronuclei
formation of micronuclei (result in words) [4]: induce the formation of micronuclei

Cc1c2oc3c(C)ccc(C(=O)N[C@@H]4C(=O)N[C@H](C(C)C)C(=O)N5CCC[C@H]5C(=O)N(C)CC(=O)N(C)[C@@H](C(C)C)C(=O)O[C@@H]4C)c3nc-2c(C(=O)N[C@@H]2C(=O)N[C@H](C(C)C)C(=O)N3CCC[C@H]3C(=O)N(C)CC(=O)N(C)[C@@H](C(C)C)C(=O)O[C@@H]2C)c(N)c1=O [Actinomycin D] (I: T[dV]P[Sar][NMeV] / II: T[dV]P[Sar][NMeV]; ester I:1-I:C, II:1-II:C; linker I:N-II:N via Actinocin(9to1))
induction of apoptosis (result in words) [5, 14]: induction of apoptosis
induction of apoptosis (result in words) [6]: neither apoptosis nor genotoxicity is observed
formation of micronuclei / micronucleated cell frequency (result in words) ([7]; CTLL-2 cells): positive response in terms of clastogenesis
formation of micronuclei / micronucleated cell frequency (result in words) [8]: neither apoptosis nor genotoxicity is observed

COS(C)(=O)=O [MMS, Methyl methanesulfonate]
induction of apoptosis (result in words) [5, 14]: apoptotic phenomenon is not triggered
induction of apoptosis (result in words) [6]: apoptotic phenomenon is not triggered

CN(N=O)C(N)=O [MNU, N-methyl-N-nitrosourea]
induction of apoptosis (result in words) [5, 14]: without inducing apoptosis
induction of apoptosis (result in words) [6]: without inducing apoptosis
formation of micronuclei / micronucleated cell frequency (result in words) ([7]; CTLL-2 cells): positive response
formation of micronuclei / micronucleated cell frequency (result in words) [8]: positive response

COC(=O)Nc1nc2ccc(C(=O)c3cccs3)cc2[nH]1 [Nocodazole, nocodazole]
induction of apoptosis (result in words) [5, 14]: induce apoptosis

C[C@H]1CCC/C=C/[C@@H]2C[C@H](O)C[C@H]2[C@H](O)/C=C/C(=O)O1 [brefeldin A]
induction of apoptosis (result in words) [5, 14]: induce apoptosis

CC[C@@]1(O)C(=O)OCc2c1cc1n(c2=O)Cc2cc3ccccc3nc2-1 [camptothecin]
induction of apoptosis (result in words) [5, 14]: induce apoptosis

COc1cc(/C=C/C(=O)CC(=O)/C=C/c2ccc(O)c(OC)c2)ccc1O [curcumin]
induction of apoptosis (result in words) [5, 14]: induce apoptosis

O=P1(N(CCCl)CCCl)NCCCO1 (stereo not drawn) [cyclophosphamide]
apoptosis (result in words) [1]: apoptosis only on the CTLL-2 cells
apoptosis (result in words) [2]: apoptosis only on the CTLL-2 cells
formation of micronuclei (result in words) [3]: induce the formation of micronuclei
formation of micronuclei (result in words) [4]: induce the formation of micronuclei

C[C@@H]1C[C@H]2[C@@H]3CCC4=CC(=O)C=C[C@]4(C)[C@@]3(F)[C@@H](O)C[C@]2(C)[C@@]1(O)C(=O)CO [dexamethasone]
concentration from which apoptosis increased ([5]; CTLL-2, in parallel to metaphase analysis): 37.5 nM
apoptosis ([5]; CTLL-2, in parallel to metaphase analysis, 150 nM dexamethasone): 30%
apoptosis ([5]; CTLL-2, in parallel to metaphase analysis, from 37.5 nM of dexamethasone, control approximately 7%): 18%
percentage of apoptotic cells ([5]; CTLL-2, Annexin-V-FITC and YOPRO-1, maximum from 50 nM of dexamethasone, negative control 6%): 30.5%
aberrant cells ([9]; from 37.5 nM of dexamethasone, control 2%): 8%
chromosomal aberrations (result in words) ([9]; CTLL-2 cells): chromosome and chromatid breaking but no exchange
lowest concentration with number of aberrant cells statistically different (p=0.05) from control ([9]; CTLL-2 cells): 37.5 nM
micronucleated cells ([10]; 50 nM): 60 ‰
aberrant cells [11]: 11%
concentration from which apoptosis increased [12]: 250 µM
apoptosis ([12]; from 250 μM of dexamethasone, control approximately 16%): 40%

CN1C(=O)CN=C(c2ccccc2)c2cc(Cl)ccc21 [diazepam]
induction of apoptosis (result in words) [5]: without inducing apoptosis
induction of apoptosis (result in words) [6]: without inducing apoptosis
formation of micronuclei / micronucleated cell frequency (result in words) ([7]; CTLL-2 cells): positive response
formation of micronuclei / micronucleated cell frequency (result in words) [8]: positive response

CCOS(C)(=O)=O [ethyl methanesulfonate]
induction of apoptosis (result in words) [5, 14]: without inducing apoptosis
induction of apoptosis (result in words) [6]: without inducing apoptosis

O=c1c(-c2ccc(O)cc2)coc2cc(O)cc(O)c12 [genistein]
induction of apoptosis (result in words) [5, 14]: induce apoptosis

CN1C(=O)[C@]23CC4=CC=C[C@H](O)[C@H]4N2C(=O)[C@@]1(CO)SS3 [gliotoxin]
level of apoptosis [5]: 45%
apoptosis ([5]; CTLL-2, in parallel to metaphase analysis, […], controls 5%): 17%
lowest concentration with apoptosis different from control (p=0.01) ([5]; CTLL-2 cells): 100 nM
induction of apoptosis (result in words) [6]: apoptosis was maintained at a lower rate
aberrant cells ([9]; from 50 μM of gliotoxin, control 1%): 10%
chromosomal aberrations (result in words) ([9]; CTLL-2 cells): positive response
lowest concentration with aberrations / positive response in terms of clastogenesis ([9]; CTLL-2 cells): 50 µM
lowest concentration with increase in micronuclei versus control ([7]; CTLL-2 cells): 100 nM
number of aberrant (micronucleated) cells ([7]; nontransfected CTLL-2, gliotoxin at the highest dose (200 nM), increased from 5‰): 20 ‰
formation of micronuclei / micronucleated cell frequency (result in words) [8]: as was the number of micronucleated cells

CSCCC=O [methional]
level of apoptotic cells ([5]; CTLL-2, methional at the highest dose (150 μM), control 6.5%): 24%
lowest concentration with statistically significant (p=0.01) induction of apoptosis ([5]; CTLL-2 cells, first dose): 60.8 µM
induction of apoptosis (result in words) [6]: neither apoptosis nor micronuclei appeared
chromosomal aberrations (result in words) ([9]; CTLL-2 cells): structural aberrations, such as breaks or gaps
lowest concentration with aberrations / positive response in terms of clastogenesis ([9]; CTLL-2 cells): 18.75 µM
cells bearing chromosomal aberrations ([9]; nontransfected CTLL-2, methional 18.75 μM, control 3%): 13%
lowest concentration with statistically significant (p=0.01) micronucleated cells [10]: 60.8 µM
number of micronucleated cells ([10]; 150 μM): 98 ‰

CCN(CC)CCCC(C)Nc1c2ccc(Cl)cc2nc2ccc(OC)cc12 (stereo not drawn) [quinacrin]
induction of apoptosis (result in words) [5, 14]: induce apoptosis

CN[C@@H]1C[C@H]2O[C@@](C)([C@@H]1OC)n1c3ccccc3c3c4c(c5c6ccccc6n2c5c31)C(=O)NC4 [staurosporine]
induction of apoptosis (result in words) [5, 14]: induction of apoptosis
induction of apoptosis (result in words) [6]: neither apoptosis nor genotoxicity is observed
formation of micronuclei / micronucleated cell frequency (result in words) ([7]; CTLL-2 cells): positive response in terms of clastogenesis
formation of micronuclei / micronucleated cell frequency (result in words) [8]: neither apoptosis nor genotoxicity is observed

CC(=O)O[C@H]1C(=O)[C@@]2(C)[C@H]([C@H](OC(=O)c3ccccc3)[C@]3(O)C[C@H](OC(=O)[C@H](O)[C@@H](NC(=O)c4ccccc4)c4ccccc4)C(C)=C1C3(C)C)[C@]1(OC(C)=O)CO[C@@H]1C[C@@H]2O [taxol]
induction of apoptosis (result in words) [5, 14]: induce apoptosis
apoptosis at the dose that increases micronuclei ([5]; CTLL-2 cells, taxol 25 nM): do not cause apoptosis
apoptosis at the dose that increases micronuclei ([6]; taxol 50 nM): do not cause apoptosis
lowest concentration with increase in micronuclei versus control [10]: 25 nM
concentration at which the difference in number of micronuclei between CTLL-2 and CTLL-2-bcl2 lines appears [13]: 25 nM
lowest concentration with increase in number of micronuclei [13]: 50 nM

mitomycin C
formation of micronuclei / micronucleated cell frequency (result in words) ([7]; CTLL-2 cells): micronucleated cell frequencies increase significantly with the dose
formation of micronuclei / micronucleated cell frequency (result in words) [8]: micronucleated cell frequencies increase significantly with the dose

thapsigargine
induction of apoptosis (result in words) [5, 14]: induce apoptosis
